Where two headings read alike, the source gives them in different places.

The target of data set [1] is human O-GlcNAcase (Homo sapiens (Human), UniProt O60502). As to the kind of experiment: biochemical. The settings on record: read-out: OGA KI. The data set is classed as biochemical.
Data set [2] is described as follows: Assay for determination of apparent permeability (Papp), bi-directional transport. The following applies: pig, LLC-PK1.
Data set [3] concerns the target O-GlcNAcase in rat PC-12 cells (Rattus norvegicus (Rat), UniProt Q8VIJ5). As to the kind of experiment: cell-based.
Text: Assay for Determination of Cellular Activity for Compounds that Inhibit O-GlcNAcase Activity
Inhibition of O-GlcNAcase, which removes O-GlcNAc from cellular proteins, results in an increase in the level of O-GlcNAcylated protein in cells. An increase in O-GlcNAcylated protein can be measured by an antibody, such as RL-2, that binds to O-GlcNAcylated protein. The amount of O-GlcNAcylated protein:RL2 antibody interaction can be measured by enzyme linked immunosorbant assay (ELISA) procedures.
A variety of tissue culture cell lines, expressing endogenous levels of O-GlcNAcase, can be utilized; examples include rat PC-12, and human U-87, or SK-N-SH cells. In this assay, rat PC-12 cells were plated in 96-well plates with approximately 10,000 cells/well. Compounds to be tested were dissolved in DMSO, either 2 or 10 mM stock solution, and then diluted with DMSO and water in a two-step process using a Tecan workstation. […] To prepare a cell lysate, the media from compound treated cells was removed, the cells were washed once with phosphate buffered saline (PBS) and then lysed for 5 minutes at room temperature in 50 μL of Phosphosafe reagent (Novagen Inc, Madison, Wis.) with protease inhibitors and PMSF. The cell lysate was collected and transferred to a new plate, which was then either coated to assay plates directly or frozen −80° C. until used in the ELISA procedure. If desired, the total protein concentration of samples is determined using 20 μL of the sample using the BCA method.
The plate was sealed and incubated at 37° C. for 2 hr with gentle shaking. The wells were then washed 3-times with 300 μl/well wash buffer. […] The plate was incubated for 60 min at 37° C. with gentle shaking. Each well was then washed 3-times with 300 μl/well wash buffer. The detection reagent was added, 100 μL/well of Amplex Ultra RED reagent (prepared by adding 30 μL of 10 mM Amplex Ultra Red stock solution to 10 ml PBS with 18 μL 3% hydrogen peroxide, H2O2). The detection reaction was incubated for 15 minutes at room temperature and then read with excitation at 530 nm and emission at 590 nm.
The mark [4] stands for this setting: rat PC-12 cells, 24 hours treatment, increase in O-GlcNAcylated protein, read-out: Cell based ELISA EC50.
The mark [5] stands for this setting: purified human O-GlcNAcase 0.7 nM, pH 7.0, room temperature, Cheng-Prusoff.

Chain of human O-GlcNAcase (O60502 whole entry): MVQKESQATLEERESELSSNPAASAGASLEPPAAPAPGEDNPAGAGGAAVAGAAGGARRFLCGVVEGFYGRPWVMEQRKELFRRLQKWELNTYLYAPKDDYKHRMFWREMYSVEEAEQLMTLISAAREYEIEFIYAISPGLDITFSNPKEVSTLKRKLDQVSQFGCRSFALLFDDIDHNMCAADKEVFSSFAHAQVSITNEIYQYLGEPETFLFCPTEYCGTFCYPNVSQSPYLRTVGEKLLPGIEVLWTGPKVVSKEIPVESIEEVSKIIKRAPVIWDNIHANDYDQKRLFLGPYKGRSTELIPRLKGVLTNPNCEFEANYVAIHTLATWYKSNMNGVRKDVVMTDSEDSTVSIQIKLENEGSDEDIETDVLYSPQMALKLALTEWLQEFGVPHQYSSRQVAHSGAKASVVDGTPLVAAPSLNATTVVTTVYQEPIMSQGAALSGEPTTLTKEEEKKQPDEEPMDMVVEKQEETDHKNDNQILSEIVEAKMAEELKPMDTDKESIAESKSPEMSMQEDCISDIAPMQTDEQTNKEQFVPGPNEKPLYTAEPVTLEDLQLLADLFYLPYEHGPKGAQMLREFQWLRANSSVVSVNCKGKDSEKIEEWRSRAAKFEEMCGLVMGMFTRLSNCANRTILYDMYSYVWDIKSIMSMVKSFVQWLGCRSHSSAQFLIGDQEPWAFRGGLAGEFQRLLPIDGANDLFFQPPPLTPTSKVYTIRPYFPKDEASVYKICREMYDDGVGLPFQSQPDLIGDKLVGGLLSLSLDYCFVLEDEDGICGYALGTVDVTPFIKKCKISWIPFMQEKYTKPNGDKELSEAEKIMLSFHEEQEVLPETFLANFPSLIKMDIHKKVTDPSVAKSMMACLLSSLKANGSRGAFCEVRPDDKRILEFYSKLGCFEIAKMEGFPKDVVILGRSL
Chain of O-GlcNAcase in rat PC-12 cells (Q8VIJ5 whole entry): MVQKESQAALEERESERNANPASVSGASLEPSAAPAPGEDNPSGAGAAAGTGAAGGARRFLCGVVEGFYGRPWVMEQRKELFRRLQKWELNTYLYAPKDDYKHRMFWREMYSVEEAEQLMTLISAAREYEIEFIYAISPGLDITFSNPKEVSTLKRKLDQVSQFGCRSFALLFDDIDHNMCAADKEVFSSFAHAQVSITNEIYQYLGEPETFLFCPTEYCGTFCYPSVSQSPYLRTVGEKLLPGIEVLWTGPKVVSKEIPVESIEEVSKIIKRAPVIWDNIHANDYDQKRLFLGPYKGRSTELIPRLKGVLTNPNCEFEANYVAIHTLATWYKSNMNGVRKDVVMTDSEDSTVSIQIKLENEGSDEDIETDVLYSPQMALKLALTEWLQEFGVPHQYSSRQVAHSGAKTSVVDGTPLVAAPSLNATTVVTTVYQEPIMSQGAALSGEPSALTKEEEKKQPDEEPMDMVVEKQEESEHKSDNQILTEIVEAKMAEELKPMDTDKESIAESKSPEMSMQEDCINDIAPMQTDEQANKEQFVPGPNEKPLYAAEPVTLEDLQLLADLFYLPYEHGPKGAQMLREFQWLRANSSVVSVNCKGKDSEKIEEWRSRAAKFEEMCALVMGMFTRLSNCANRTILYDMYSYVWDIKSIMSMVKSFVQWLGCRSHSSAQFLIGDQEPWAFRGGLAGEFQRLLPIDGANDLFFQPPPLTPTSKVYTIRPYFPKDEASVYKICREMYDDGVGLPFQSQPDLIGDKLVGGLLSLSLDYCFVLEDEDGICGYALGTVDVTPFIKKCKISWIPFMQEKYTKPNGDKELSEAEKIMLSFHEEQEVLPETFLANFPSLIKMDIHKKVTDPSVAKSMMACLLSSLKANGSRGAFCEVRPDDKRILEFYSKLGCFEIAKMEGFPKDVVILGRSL

The Ki is the equilibrium dissociation constant of an inhibitor or competing ligand from its target. One may read the Papp as the rate of passage across a membrane or cell layer, normalised by area and donor concentration. Broadly, the EC50 is the concentration giving half of the maximal effect. As to `CN(C)C1=N[C@@H]2[C@@H](O)[C@H](O)[C@@H](C(OCc3cccc(F)c3)C(F)(F)F)O[C@@H]2S1` (stereo in doubt) [Example 64, (3aR,5S,6S,7R,7aR)-2-(dimethylamino)-5-((S)-2,2,2-trifluoro-1-(3-fluorobenzyloxy)ethyl)-5,6,7,7a-tetrahydro-3aH-pyrano[3,2-d]thiazole-6,7-diol], the Ki in data set [1] was determined as 1.32 nM. Further, in data set [2], the Papp at 3 h, 1 μM was determined as 29.9 ×10⁻⁶ cm/s. The EC50 in data set [3] (setting [4]) is 8.43 nM.
As for `CN(C)C1=N[C@@H]2[C@@H](O)[C@H](O)[C@@H]([C@@H](OCCCCCF)C(F)(F)F)O[C@@H]2S1` [Example 31, (3aR,5S,6S,7R,7aR)-2-(dimethylamino)-5-((R)-2,2,2-trifluoro-1-(5-fluoropentyloxy)ethyl)-5,6,7,7a-tetrahydro-3aH-pyrano[3,2-d]thiazole-6,7-diol], in data set [1] (setting [5]), the Ki was determined as 4.4 nM. Moreover, the Papp at 3 h, 1 μM in data set [2] was determined as 31.3 ×10⁻⁶ cm/s. Also, in data set [3] (setting [4]), the EC50 turned out to be 22.3 nM.
As for `CN(C)C1=N[C@@H]2[C@@H](O)[C@H](O)[C@@H]([C@@H](OCCC3CCCCC3)C(F)(F)F)O[C@@H]2S1` [Example 34, (3aR,5S,6S,7R,7aR)-5-((R)-1-(2-cyclohexylethoxy)-2,2,2-trifluoroethyl)-2-(dimethylamino)-5,6,7,7a-tetrahydro-3aH-pyrano[3,2-d]thiazole-6,7-diol], the Ki in data set [1] (setting [5]) came out at 2.27 nM. Also, the Papp at 3 h, 1 μM in data set [2] turned out to be 33.3 ×10⁻⁶ cm/s. Also, in data set [3] (setting [4]), the EC50 worked out at 46.4 nM.
`CN(C)C1=N[C@@H]2[C@@H](O)[C@H](O)[C@@H]([C@@H](OCc3ccccc3)C(F)(F)F)O[C@@H]2S1` [Example 39, (3aR,5S,6S,7R,7aR)-5-((R)-1-(benzyloxy)-2,2,2-trifluoroethyl)-2-(dimethylamino)-5,6,7,7a-tetrahydro-3aH-pyrano[3,2-d]thiazole-6,7-diol]: the Ki in data set [1] (setting [5]) amounted to 2.43 nM. The EC50 in data set [3] (setting [4]) stood at 36.2 nM.
As to `CN(C)C1=N[C@@H]2[C@@H](O)[C@H](O)[C@@H]([C@@H](OCc3cccnc3)C(F)(F)F)O[C@@H]2S1` [Example 42, (3aR,5S,6S,7R,7aR)-2-(dimethylamino)-5-((R)-2,2,2-trifluoro-1-(pyridin-3-ylmethoxy)ethyl)-5,6,7,7a-tetrahydro-3aH-pyrano[3,2-d]thiazole-6,7-diol], the Ki in data set [1] (setting [5]) amounted to 2.36 nM. For the same compound, the apparent permeability coefficient (Papp) at 3 h, 1 μM in data set [2] was found to be 15.2 ×10⁻⁶ cm/s. In addition, in data set [3] (setting [4]), the EC50 worked out at 120 nM.
With `CN(C)C1=N[C@@H]2[C@@H](O)[C@H](O)[C@@H]([C@@H](OCc3ccc(Cc4ccccc4)cc3)C(F)(F)F)O[C@@H]2S1` [Example 45, (3aR,5S,6S,7R,7aR)-5-((R)-1-(4-benzylbenzyloxy)-2,2,2-trifluoroethyl)-2-(dimethylamino)-5,6,7,7a-tetrahydro-3aH-pyrano[3,2-d]thiazole-6,7-diol], the Ki in data set [1] turned out to be 1.97 nM. This compound came in with an EC50 in data set [3] of 128 nM.
Regarding `COc1ccc(CO[C@H]([C@H]2O[C@@H]3SC(N(C)C)=N[C@@H]3[C@@H](O)[C@@H]2O)C(F)(F)F)cc1` [Example 52, (3aR,5S,6S,7R,7aR)-2-(dimethylamino)-5-((R)-2,2,2-trifluoro-1-(4-methoxybenzyloxy)ethyl)-5,6,7,7a-tetrahydro-3aH-pyrano[3,2-d]thiazole-6,7-diol], in data set [1] (setting [5]), the Ki was found to be 1.38 nM. The Papp at 3 h, 1 μM in data set [2] was 30.5 ×10⁻⁶ cm/s. Moreover, the EC50 in data set [3] (setting [4]) was found to be 21.3 nM.
`CN(C)C1=N[C@@H]2[C@@H](O)[C@H](O)[C@@H]([C@@H](OCc3ccc(OCCF)cc3)C(F)(F)F)O[C@@H]2S1` [Example 55, (3aR,5S,6S,7R,7aR)-2-(dimethylamino)-5-((R)-2,2,2-trifluoro-1-(4-(2-fluoroethoxy)benzyloxy)ethyl)-5,6,7,7a-tetrahydro-3aH-pyrano[3,2-d]thiazole-6,7-diol]: in data set [1], the Ki came to 0.65 nM. The Papp at 3 h, 1 μM in data set [2] is 27.1 ×10⁻⁶ cm/s. For the same compound, the midpoint of the response in data set [3], the EC50, lay at 79.5 nM.
For `CN(C)C1=N[C@@H]2[C@@H](O)[C@H](O)[C@@H]([C@@H](OCc3ccc(Oc4ccccc4)cc3)C(F)(F)F)O[C@@H]2S1` [Example 57, (3aR,5S,6S,7R,7aR)-2-(dimethylamino)-5-((R)-2,2,2-trifluoro-1-(4-phenoxybenzyloxy)ethyl)-5,6,7,7a-tetrahydro-3aH-pyrano[3,2-d]thiazole-6,7-diol], in that order: 1.11 nM, 16.4 ×10⁻⁶ cm/s and 62.1 nM.
Consider `COc1ccc(CO[C@H]([C@H]2O[C@@H]3SC(N(C)C)=N[C@@H]3[C@@H](O)[C@@H]2O)C(F)(F)F)cc1C(F)(F)F` [Example 58, (3aR,5S,6S,7R,7aR)-2-(dimethylamino)-5-((R)-2,2,2-trifluoro-1-(4-methoxy-3-(trifluoromethyl)benzyloxy)ethyl)-5,6,7,7a-tetrahydro-3aH-pyrano[3,2-d]thiazole-6,7-diol], for which the Ki in data set [1] (setting [5]) worked out at 0.84 nM. Besides, the Papp at 3 h, 1 μM in data set [2] was determined as 26.2 ×10⁻⁶ cm/s. Further, in data set [3] (setting [4]), the EC50 worked out at 76.9 nM.
As for `CN(C)C1=N[C@@H]2[C@@H](O)[C@H](O)[C@@H]([C@@H](OCc3ccccc3F)C(F)(F)F)O[C@@H]2S1` [Example 61, (3aR,5S,6S,7R,7aR)-2-(dimethylamino)-5-((R)-2,2,2-trifluoro-1-(2-fluorobenzyloxy)ethyl)-5,6,7,7a-tetrahydro-3aH-pyrano[3,2-d]thiazole-6,7-diol], the Ki in data set [1] came to 1.98 nM. The Papp at 3 h, 1 μM in data set [2] stood at 29 ×10⁻⁶ cm/s. In data set [3], this compound returned an EC50 of 7.73 nM.
Consider `CN(C)C1=N[C@@H]2[C@@H](O)[C@H](O)[C@@H]([C@@H](OCc3ccc(F)cc3)C(F)(F)F)O[C@@H]2S1` [Example 65], for which the Ki in data set [1] (setting [5]) turned out to be 1.02 nM. Also, the Papp at 3 h, 1 μM in data set [2] worked out at 28.8 ×10⁻⁶ cm/s. Also, in data set [3] (setting [4]), the EC50 came to 27.7 nM.
For the compound `CN(C)C1=N[C@@H]2[C@@H](O)[C@H](O)[C@@H]([C@@H](OCc3ccc(C(F)(F)F)cc3)C(F)(F)F)O[C@@H]2S1` [Example 66, (3aR,5S,6S,7R,7aR)-2-(dimethylamino)-5-((R)-2,2,2-trifluoro-1-(4-(trifluoromethyl)benzyloxy)ethyl)-5,6,7,7a-tetrahydro-3aH-pyrano[3,2-d]thiazole-6,7-diol], the Ki in data set [1] stood at 2.32 nM. Moreover, the Papp at 3 h, 1 μM in data set [2] was determined as 28.2 ×10⁻⁶ cm/s. In data set [3], the midpoint of the response, the EC50, lay at 13.5 nM.
For the compound `CN(C)C1=N[C@@H]2[C@@H](O)[C@H](O)[C@@H]([C@@H](OCc3ccc(CCF)cc3)C(F)(F)F)O[C@@H]2S1` [Example 70, (3aR,5S,6S,7R,7aR)-2-(dimethylamino)-5-((R)-2,2,2-trifluoro-1-(4-(2-fluoroethyl)benzyloxy)ethyl)-5,6,7,7a-tetrahydro-3aH-pyrano[3,2-d]thiazole-6,7-diol], the Ki in data set [1] (setting [5]) is 0.61 nM. Further, the Papp at 3 h, 1 μM in data set [2] amounted to 29.5 ×10⁻⁶ cm/s. For the same compound, in data set [3] (setting [4]), the EC50 was 17.8 nM.
As to `CN(C)C1=N[C@@H]2[C@@H](O)[C@H](O)[C@@H]([C@@H](OCc3ccc(CCCF)cc3)C(F)(F)F)O[C@@H]2S1` [Example 71, (3aR,5S,6S,7R,7aR)-2-(dimethylamino)-5-((R)-2,2,2-trifluoro-1-(4-(3-fluoropropyl)benzyloxy)ethyl)-5,6,7,7a-tetrahydro-3aH-pyrano[3,2-d]thiazole-6,7-diol], in data set [1] (setting [5]), the Ki was found to be 0.78 nM. Moreover, in data set [2], the Papp at 3 h, 1 μM turned out to be 34.6 ×10⁻⁶ cm/s. Also, the EC50 in data set [3] (setting [4]) worked out at 30.8 nM.
For `CCCO[C@H]([C@H]1O[C@@H]2SC(NC)=N[C@@H]2[C@@H](O)[C@@H]1O)C(F)(F)F` [Example 79, (3aR,5S,6S,7R,7aR)-2-(methylamino)-5-((R)-2,2,2-trifluoro-1-propoxyethyl)-5,6,7,7a-tetrahydro-3aH-pyrano[3,2-d]thiazole-6,7-diol], in that order: 3.77 nM, 20.4 ×10⁻⁶ cm/s and 173 nM.
As for `CNC1=N[C@@H]2[C@@H](O)[C@H](O)[C@@H]([C@@H](OCc3ccc(C)cc3)C(F)(F)F)O[C@@H]2S1` [Example 85, (3aR,5S,6S,7R,7aR)-2-(methylamino)-5-((R)-2,2,2-trifluoro-1-(4-mcthylbenzyloxy)ethyl)-5,6,7,7a-tetrahydro-3aH-pyrano[3,2-d]thiazole-6,7-diol], in data set [1] (setting [5]), the Ki was 3.11 nM. Further, the Papp at 3 h, 1 μM in data set [2] was 26.3 ×10⁻⁶ cm/s.
As to `CNC1=N[C@@H]2[C@@H](O)[C@H](O)[C@@H]([C@@H](OCc3ccc(CCF)cc3)C(F)(F)F)O[C@@H]2S1` [Example 87, (3aR,5S,6S,7R,7aR)-2-(methylamino)-5-((R)-2,2,2-trifluoro-1-(4-(2-fluoroethyl)benzyloxy)ethyl)-5,6,7,7a-tetrahydro-3aH-pyrano[3,2-d]thiazole-6,7-diol], in data set [1], the Ki came out at 0.71 nM. A half-maximal response in data set [3] (EC50) required 46.4 nM.
`CNC1=N[C@@H]2[C@@H](O)[C@H](O)[C@@H]([C@@H](OCc3ccc(F)cc3)C(F)(F)F)O[C@@H]2S1` [Example 89, (3aR,5S,6S,7R,7aR)-2-(methylamino)-5-((R)-2,2,2-trifluoro-1-(4-fluorobenzyloxy)ethyl)-5,6,7,7a-tetrahydro-3aH-pyrano[3,2-d]thiazole-6,7-diol]: the Ki in data set [1] (setting [5]) turned out to be 1.44 nM. For the same compound, the Papp at 3 h, 1 μM in data set [2] stood at 25.4 ×10⁻⁶ cm/s. Further, the EC50 in data set [3] (setting [4]) amounted to 57.4 nM.
As for `CCNC1=N[C@@H]2[C@@H](O)[C@H](O)[C@@H]([C@@H](OCc3ccc(OC)cc3)C(F)(F)F)O[C@@H]2S1` [Example 96, (3aR,5S,6S,7R,7aR)-2-(ethylamino)-5-((R)-2,2,2-trifluoro-1-(4-methoxybenzyloxy)ethyl)-5,6,7,7a-tetrahydro-3aH-pyrano[3,2-d]thiazole-6,7-diol], the Ki in data set [1] (setting [5]) turned out to be 12.5 nM. Besides, in data set [2], the Papp at 3 h, 1 μM is 30.1 ×10⁻⁶ cm/s.
For the compound `CNC1=N[C@@H]2[C@@H](O)[C@H](O)[C@@H]([C@](C)(O)C(F)(F)F)O[C@@H]2S1` [Example 158, (3aR,5S,6S,7R,7aR)-2-(methylamino)-5-((S)-1,1,1-trifluoro-2-hydroxypropan-2-yl)-5,6,7,7a-tetrahydro-3aH-pyrano[3,2-d]thiazole-6,7-diol], the Ki in data set [1] (comparative compounds described in PCT/US11/059668) is 1.29 nM. In addition, the Papp at 3 h, 1 μM in data set [2] was 2.9 ×10⁻⁶ cm/s.

Values taken from patent US9611275B2 (priority 2012, dated 2017).
